Square brackets hold non-standard residues; d marks the D form. Peptide text beside a SMILES is read from it. * marks the point of attachment. Orn = NCCC[C@H](N)C(=O)O; Hexanoyl = CCCCCC(=O)*; Aib = CC(C)(N)C(=O)O
Experiments:
human PAC1 = target: T1, human PAC1 (Homo sapiens, UniProt P41586); test: Filter binding assay, 125I-labeled PACAP-27 tracer, PAC1 membranes; conditions: read-out: Human PAC1 Receptor Binding (IC50; nM)
T1 construct: expressed in transfected cells
T1 sequence (P41586 21-468): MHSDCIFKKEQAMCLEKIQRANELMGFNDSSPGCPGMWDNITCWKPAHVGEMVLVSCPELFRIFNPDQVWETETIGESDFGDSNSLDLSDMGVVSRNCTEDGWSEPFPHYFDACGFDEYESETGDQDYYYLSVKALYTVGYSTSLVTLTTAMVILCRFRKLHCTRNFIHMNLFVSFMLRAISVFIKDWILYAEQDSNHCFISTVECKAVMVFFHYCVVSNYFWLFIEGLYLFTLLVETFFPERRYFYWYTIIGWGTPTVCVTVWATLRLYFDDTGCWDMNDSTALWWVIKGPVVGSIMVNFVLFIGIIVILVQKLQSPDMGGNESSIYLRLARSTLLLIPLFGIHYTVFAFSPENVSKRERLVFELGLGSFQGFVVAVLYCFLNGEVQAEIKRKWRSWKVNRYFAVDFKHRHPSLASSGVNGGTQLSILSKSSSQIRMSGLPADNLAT

rat VPAC1 receptor = target: T2, rat VPAC1 receptor (Rattus norvegicus, UniProt P30083); test: DiscoveRx cAMP assay, in vitro potency at rat VPAC1 receptor; type: cell-based; conditions: CHO-PO cells transiently transfected with rat VPAC1; cAMP generation; mean of two independent runs
T2 construct: expressed in transfected cells; host or cells: CHO-PO (transient, Lipofectamine)
T2 sequence (P30083 31-459): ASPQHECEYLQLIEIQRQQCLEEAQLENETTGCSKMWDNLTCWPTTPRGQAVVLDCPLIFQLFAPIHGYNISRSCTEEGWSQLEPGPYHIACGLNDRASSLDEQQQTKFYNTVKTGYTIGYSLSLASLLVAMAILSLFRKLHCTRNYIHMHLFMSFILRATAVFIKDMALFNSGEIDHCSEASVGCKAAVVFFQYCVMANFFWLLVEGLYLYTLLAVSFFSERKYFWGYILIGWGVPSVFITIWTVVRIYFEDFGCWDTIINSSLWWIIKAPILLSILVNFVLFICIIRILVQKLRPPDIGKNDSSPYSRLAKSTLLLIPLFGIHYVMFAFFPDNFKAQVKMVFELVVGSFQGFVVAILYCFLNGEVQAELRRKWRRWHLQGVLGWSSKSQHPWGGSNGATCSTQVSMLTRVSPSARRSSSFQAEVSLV
Experimental: (§1) DiscoveRx: CHO-PO cells are transiently transfected with rat VPAC1 or VPAC2 receptor DNA using commercially available transfection reagents (Lipofectamine from Invitrogen). The cells are seeded at a density of 10,000/well in a 96-well plate and are allowed to grow for 3 days in […] culture medium. At day 3, the assay is performed.
(§2) On the day of the experiment, the medium is removed. Also, the cells are washed twice. The cells are incubated in assay buffer plus IBMX for 15 minutes at room temperature. Afterwards, the stimuli are added and are dissolved in assay buffer. The stimuli are present for 30 minutes. Then, the assay buffer is gently removed. The cell lysis reagent of the DiscoveRx cAMP kit is added. Thereafter, the standard protocol for developing the cAMP signal as described by the manufacturer is used (DiscoveRx Inc., USA). EC50 values for cAMP generation are calculated from the raw signal or are based on absolute cAMP levels as determined by a standard curve performed on each plate.
(§3) Results for each agonist are the mean of two independent runs. Rat VPAC1 and VPAC2 results are only generated using the DiscoveRx assay.

human VPAC1 = target: T3, human VPAC1 (Homo sapiens, UniProt P32241); test: Filter binding assay, 125I-labeled VIP tracer, VPAC1 membranes; conditions: read-out: Human VPAC1 Receptor Binding (IC50; nM)
T3 construct: expressed in transfected cells
T3 sequence (P32241 31-457): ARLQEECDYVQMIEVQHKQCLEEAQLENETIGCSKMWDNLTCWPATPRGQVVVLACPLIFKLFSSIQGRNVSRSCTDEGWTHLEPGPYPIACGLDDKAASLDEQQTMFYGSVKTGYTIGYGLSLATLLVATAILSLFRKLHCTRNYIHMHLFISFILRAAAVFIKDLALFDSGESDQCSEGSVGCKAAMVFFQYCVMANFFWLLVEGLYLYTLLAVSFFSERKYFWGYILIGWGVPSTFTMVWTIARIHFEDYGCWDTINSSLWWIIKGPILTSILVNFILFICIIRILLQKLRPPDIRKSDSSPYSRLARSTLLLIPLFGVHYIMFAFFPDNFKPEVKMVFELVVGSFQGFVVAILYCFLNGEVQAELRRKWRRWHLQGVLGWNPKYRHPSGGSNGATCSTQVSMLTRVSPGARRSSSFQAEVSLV

[1] = Rat serum stability (activity remaining, CHO-VPAC2 DiscoveRx read-out); type: in vitro ADME
Method in brief: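 Peptides preincubated overnight in rat serum at 37 °C without aprotinin versus 4 °C with aprotinin, then tested as 11-point 5× dilutions in duplicate on CHO-VPAC2 cells, 30 min at RT. cAMP measured by DiscoveRx kit against standards; EC50 derived for each aliquot.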

human VPAC2 [2] = target: T4, human VPAC2 (Homo sapiens, UniProt P41587); test: Filter binding assay, 125I-labeled VIP tracer, VPAC2 membranes; conditions: read-out: Human VPAC2 Receptor Binding (IC50; nM)
T4 construct: expressed in transfected cells
T4 sequence (P41587 24-438): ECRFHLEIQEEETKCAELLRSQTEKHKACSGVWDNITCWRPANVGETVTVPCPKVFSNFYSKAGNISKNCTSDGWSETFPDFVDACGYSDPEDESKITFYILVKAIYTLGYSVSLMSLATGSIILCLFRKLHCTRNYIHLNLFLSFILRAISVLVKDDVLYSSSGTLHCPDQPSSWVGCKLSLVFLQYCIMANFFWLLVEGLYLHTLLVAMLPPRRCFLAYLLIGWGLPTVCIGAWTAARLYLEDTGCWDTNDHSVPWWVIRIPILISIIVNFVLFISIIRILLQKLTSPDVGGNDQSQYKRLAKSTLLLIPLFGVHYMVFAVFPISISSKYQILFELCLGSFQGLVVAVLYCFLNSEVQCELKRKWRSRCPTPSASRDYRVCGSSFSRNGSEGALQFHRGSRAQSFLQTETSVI
Experimental: For this assay, the solutions and equipment include:
Presoak solution: 0.5% Polyethyleneamine in Aqua dest
Buffer for flushing filter plates: 25 mM HEPES pH 7.4
Blocking buffer: 25 mM HEPES pH 7.4; 0.2% protease free BSA
Assay buffer: 25 mM HEPES pH 7.4; 0.5% protease free BSA
Dilution and assay plate: PS-Microplate, U form
Filtration Plate: Multiscreen FB Opaque Plate; 1.0 μM Type B Glasfiber filter
In order to prepare the filter plates, the presoak solution is aspirated by vacuum filtration. The plates are flushed twice with 200 μL flush buffer. 200 μL blocking buffer is added to the filter plate. The filter plate is then incubated with 200 μL presoak solution for 1 hour at room temperature.
The assay plate is filled with 25 μL assay buffer, 25 μL membranes (2.5 μg) suspended in assay buffer, 25 μL compound (agonist) in assay buffer, and 25 μL tracer (about 40000 cpm) in assay buffer. The filled plate is incubated for 1 hour with shaking.
The transfer from assay plate to filter plate is conducted. The blocking buffer is aspirated by vacuum filtration and washed two times with flush buffer. 90 μL is transferred from the assay plate to the filter plate. The 90 μL transferred from assay plate is aspirated and washed three times with 200 μL flush buffer. The plastic support is removed. It is dried for 1 hour at 60° C. 30 μL Microscint is added. The count is performed.

rat VPAC2 receptor = target: T5, rat VPAC2 receptor (Rattus norvegicus, UniProt P35000); test: DiscoveRx cAMP assay, in vitro potency at rat VPAC2 receptor; type: cell-based; conditions: CHO-PO cells transiently transfected with rat VPAC2; cAMP generation; mean of two independent runs
T5 construct: expressed in transfected cells; host or cells: CHO-PO (transient, Lipofectamine)
T5 sequence (P35000 23-437): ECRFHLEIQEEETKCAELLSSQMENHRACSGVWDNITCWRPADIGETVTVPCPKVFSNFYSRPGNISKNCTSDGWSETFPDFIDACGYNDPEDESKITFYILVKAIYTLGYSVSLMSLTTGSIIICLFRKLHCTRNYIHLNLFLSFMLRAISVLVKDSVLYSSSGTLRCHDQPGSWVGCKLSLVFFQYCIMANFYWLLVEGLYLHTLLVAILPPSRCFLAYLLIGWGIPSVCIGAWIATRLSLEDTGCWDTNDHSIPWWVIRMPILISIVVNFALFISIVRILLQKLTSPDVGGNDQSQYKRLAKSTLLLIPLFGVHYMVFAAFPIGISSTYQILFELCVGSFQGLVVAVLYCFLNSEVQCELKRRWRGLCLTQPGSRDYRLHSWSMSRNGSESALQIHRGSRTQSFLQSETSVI
Experimental: as §1, §2, §3

human VPAC2 [3] = target: T4, human VPAC2; test: Alpha screen cAMP assay, in vitro potency at human VPAC2 receptor; type: cell-based; conditions: cAMP generation; single result from two analyses in a single run, some values average of more than one experiment
Experimental: Alpha screen: Cells are washed in the culture flask once with PBS. Then, the cells are rinsed with enzyme free dissociation buffer. The dissociated cells are removed. The cells are then spun down and washed in stimulation buffer. For each data point, 50,000 cells suspended in stimulation buffer are used. To this buffer, Alpha screen acceptor beads are added along with the stimuli. This mixture is incubated for 60 minutes. Lysis buffer and Alpha screen donor beads are added and are incubated for 60 to 120 minutes. The Alpha screen signal (indicative of intracellular cAMP levels) is read in a suitable instrument (e.g. AlphaQuest from Perkin-Elmer). Steps including Alpha screen donor and acceptor beads are performed in reduced light. The EC50 for cAMP generation is calculated from the raw signal or is based on absolute cAMP levels as determined by a standard curve performed on each plate.
Results for each agonist are, at minimum, from two analyses performed in a single run. For some agonists, the results are the mean of more than one run. The tested peptide concentrations are: 10000, 1000, 100, 10, 3, 1, 0.1, 0.01, 0.003, 0.001, 0.0001 and 0.00001 nM.

SMILES | IC50 (human PAC1) [nM] | EC50 (rat VPAC1 receptor) [nM] | IC50 (human VPAC1) [nM] | Rat Serum Stability (estimated purity in % after overnight incub.) [1] [%] | IC50 (human VPAC2 [2]) [nM] | EC50 (rat VPAC2 receptor) [nM] | EC50 (human VPAC2 [3]) [nM]
CCCCCC(=O)N[C@@H](Cc1c[nH]cn1)C(=O)N[C@@H](CO)C(=O)N[C@@H](CC(=O)O)C(=O)N[C@@H](C)C(=O)N[C@H](C(=O)N[C@@H](Cc1ccccc1)C(=O)N[C@H](C(=O)N[C@@H](CC(=O)O)C(=O)N[C@@H](CC(N)=O)C(=O)N[C@@H](Cc1ccc(O)cc1)C(=O)N[C@H](C(=O)N[C@@H](CCCN)C(=O)N[C@@H](CC(C)C)C(=O)N[C@@H](CCCNC(=N)N)C(=O)NC(C)(C)C(=O)N[C@@H](CCC(N)=O)C(=O)N[C@H](C(=O)N[C@@H](C)C(=O)N[C@@H](C)C(=O)NC(C)(C)C(=O)N[C@@H](CCCCN)C(=O)N[C@@H](Cc1ccc(O)cc1)C(=O)N[C@@H](CO)C(=O)N[C@@H](CCC(N)=O)C(=O)N[C@@H](CO)C(=O)N[C@H](C(=O)N[C@@H](CCCN)C(=O)N[C@@H](CC(N)=O)C(=O)N[C@@H](CCCN)C(=O)NCC(=O)NCC(=O)N1CCC[C@H]1C(=O)N[C@@H](CO)C(=O)N[C@@H](CO)C(=O)NCC(=O)N[C@@H](C)C(=O)N1CCC[C@H]1C(=O)N1CCC[C@H]1C(=O)N1CCC[C@H]1C(=O)N[C@@H](CO)C(=O)O)[C@@H](C)CC)C(C)C)[C@@H](C)O)[C@@H](C)O)C(C)C [Agonist P384] (Hexanoyl-HSDAVFTDNYT[Orn]LR[Aib]QVAA[Aib]KYSQSI[Orn]N[Orn]GGPSSGAPPPS-OH; C-terminus assumed) | > 25000 | > 600 | > 3000 | 96.45 | – | – | –
CCCCCC(=O)N[C@@H](Cc1c[nH]cn1)C(=O)N[C@@H](CO)C(=O)N[C@@H](CC(=O)O)C(=O)N[C@@H](C)C(=O)N[C@H](C(=O)N[C@@H](Cc1ccccc1)C(=O)N[C@H](C(=O)N[C@@H](CC(=O)O)C(=O)N[C@@H](CC(N)=O)C(=O)N[C@@H](Cc1ccc(O)cc1)C(=O)N[C@H](C(=O)N[C@@H](CCCN)C(=O)N[C@@H](CC(C)C)C(=O)N[C@@H](CCCNC(=N)N)C(=O)NC(C)(C)C(=O)N[C@@H](CCC(N)=O)C(=O)N[C@H](C(=O)N[C@@H](CO)C(=O)N[C@@H](C)C(=O)NC(C)(C)C(=O)N[C@@H](CCCCN)C(=O)N[C@@H](Cc1ccc(O)cc1)C(=O)N[C@@H](CC(C)C)C(=O)N[C@@H](CCC(N)=O)C(=O)N[C@@H](CO)C(=O)N[C@H](C(=O)N[C@@H](CCCN)C(=O)N[C@@H](CC(N)=O)C(=O)N[C@@H](CCCN)C(=O)NCC(=O)NCC(=O)N1CCC[C@H]1C(=O)N[C@@H](CO)C(=O)N[C@@H](CO)C(=O)NCC(=O)N[C@@H](C)C(=O)N1CCC[C@H]1C(=O)N1CCC[C@H]1C(=O)N1CCC[C@H]1C(=O)N[C@@H](CO)C(=O)O)[C@@H](C)CC)C(C)C)[C@@H](C)O)[C@@H](C)O)C(C)C [Agonist P388] (Hexanoyl-HSDAVFTDNYT[Orn]LR[Aib]QVSA[Aib]KYLQSI[Orn]N[Orn]GGPSSGAPPPS-OH; C-terminus assumed) | > 25000 | > 2000 | > 3000 | – | ≥ 100 | – | –
CCCCCC(=O)N[C@@H](Cc1c[nH]cn1)C(=O)N[C@@H](CO)C(=O)N[C@@H](CC(=O)O)C(=O)N[C@@H](C)C(=O)N[C@H](C(=O)N[C@@H](Cc1ccccc1)C(=O)N[C@H](C(=O)N[C@@H](CC(=O)O)C(=O)N[C@@H](CCC(N)=O)C(=O)N[C@@H](Cc1ccc(OC)cc1)C(=O)N[C@H](C(=O)N[C@@H](CCCN)C(=O)N[C@@H](CC(C)C)C(=O)N[C@@H](CCCNC(=N)N)C(=O)NC(C)(C)C(=O)N[C@@H](CCC(N)=O)C(=O)N[C@@H](CC(C)C)C(=O)N[C@@H](C)C(=O)N[C@@H](C)C(=O)NC(C)(C)C(=O)N[C@@H](CCCN)C(=O)N[C@@H](Cc1ccc(O)cc1)C(=O)N[C@@H](CC(C)C)C(=O)N[C@@H](CCC(N)=O)C(=O)N[C@@H](CO)C(=O)N[C@H](C(=O)N[C@@H](CCCN)C(=O)N[C@@H](CCCN)C(=O)NCC(=O)NCC(=O)N1CCC[C@H]1C(=O)N[C@@H](CO)C(=O)N[C@@H](CO)C(=O)NCC(=O)N[C@@H](C)C(=O)N1CCC[C@H]1C(=O)N1CCC[C@H]1C(=O)N1CCC[C@H]1C(=O)N[C@@H](CO)C(=O)O)[C@@H](C)CC)[C@@H](C)O)[C@@H](C)O)C(C)C [Agonist P394] (Hexanoyl-HSDAVFTDQY(Me)T[Orn]LR[Aib]QLAA[Aib][Orn]YLQSI[Orn][Orn]GGPSSGAPPPS-OH; C-terminus assumed) | > 25000 | 0.48 | – | – | – | 0.03 | 0.11
